Experimental data: US20140051685A1, “THERAPEUTIC TREATMENT FOR METABOLIC SYNDROME, TYPE 2 DIABETES, OBESITY OR PREDIABETES” (priority 2010, published 2014)

Key:
Assay type in all cases: in vivo
[1] = tested on: high fat fed, hypertensive SHR rats; assay: Quinelorane plus fusaric acid in high fat fed, hypertensive SHR rats; conditions: SHR rats on high fat diet; for change from baseline body weight (weight loss): FA 12.5 mg/kg, 17 days, at 13 hours after light onset, FIGS. 1 and 2; for blood glucose level: FIG. 6
Experimental: Male SHR rats were maintained on 14 hour daily photoperiods and fed a high fat diet (60% of energy from fat; 5.24 kcal/gram weight) for 3 weeks and then divided into different groups and treated with either quinelorane (Q; a dopamine D2/D3 mixed receptor agonist) (0.075 mg/kg), fusaric acid (FA; a dopamine beta hydroxylase inhibitor) (12.5 mg/kg), quinelorane (0.075 mg/kg) plus FA (Q/FA) (12.5 mg/kg), or vehicle at 13 hours after light onset for 17 days. The doses of Q and FA were set at less than half maximal to effect central dopamine receptor binding functions and dopamine beta hydroxylase activity, respectively. […] Blood pressure measurements were taken at 14 days of treatment and animals were sacrificed at 18 days of treatment for analyses of body fat and humoral factors and metabolites. […] Respecting blood glucose, although both Q and FA reduced glucose level relative to vehicle, only the Q/FA regimen normalized blood glucose in these animals relative to vehicle (FIG. 6).

[2] = tested on: obese, diabetic female ob/ob mice; assay: Low dose amphetamine with or without bromocriptine in ob/ob mice; conditions: amphetamine 3 mg/kg
Excerpt: Amphetamine is a selective presynaptic dopamine release enhancer. It also acts as a presynaptic noradrenergic release enhancer but at higher dosages that will counter the effect of the dopamine reuptake inhibition activity to improve metabolism. However, addition of a dopamine D2 receptor agonist will act to reduce any amphetamine-induced increase in synaptic noradrenaline level and therefore should produce a more pronounced desired effect on metabolic disease than amphetamine or the D2 receptor agonist alone. A study was conducted to determine the effects of low dose amphetamine (3 mg/kg) with or without the dopamine D2 receptor agonist bromocriptine (5-<10 mg/kg dose) upon body weight gain, blood glucose, plasma free fatty acid and triglyceride levels in obese, diabetic mice (ob/ob strain). […] The ob/ob mouse is hyperphagic, obese, insulin resistant, diabetic and dyslipidemic due to the absence of functional leptin as a result of a mutation in this gene. Starvation or calorie restriction of these mice leads to increases in plasma free fatty acid levels that can function over the long term to worsen diabetes.
On the fifteenth day of the study and approximately 24 hours after the final treatment animals were sacrificed and blood samples were obtained for the analyses of blood glucose, plasma free fatty acid and triglyceride levels. […] Amphetamine had no effect on final body weight however, amphetamine plus bromocriptine reduced final body weight from 44±1 g to 39=/- 1.5 g.

[3] = tested on: male mice fed a high fat diet; assay: GBR versus bupropion in mice fed a high fat diet
Experimental: The effect of increasing central dopamine neuronal activity versus increasing central dopamine plus norepinephirne neuronal activity on body fat, blood glucose, plasma insulin, and insulin sensitivity was studied in male mice fed a high fat diet from 4 weeks of age until 24 weeks of age. These mice were maintained on this high fat diet while treated with either GBR (20 mg/kg) (a selective dopamine reuptake inhibitor) or bupropion (20 mg/kg) (a dopamine and norepinpehrine reuptake inhibitor) at doses that approximate their 50% maximal effective dose for these functions in vivo in rodents.

[4] = tested on: female mice fed a high fat diet for 20 weeks; assay: GBR 12909 plus fusaric acid in mice fed a high fat diet; conditions: for body weight (normalization): 2 weeks of treatment, normal weight for age matched controls=28 grams, FIG. 15; for plasma insulin levels compared to lean, insulin sensitive, non-diabetic mice: FIG. 12
Experimental: Female mice at 4 weeks of age were fed a high fat diet for 20 weeks to induce diabetes and insulin resistance and continued on such diet while treated for 14 days with either GBR 12909 (10 mg/kg), FA (15 mg/kg), GBR 12909 (10 mg/kg) plus FA (15 mg/kg), or vehicle and sacrificed after 14 days of treatment for the analyses of body fat, blood glucose, plasma insulin, and plasma nitric oxide levels. […] Only the GBR/FA group normalized plasma insulin levels. […] This effect was not observed with either GBR or FA treatments alone.

[5] = tested on: obese, diabetic female ob/ob mice with mild diabetes; assay: GBR 12909 and clonidine, interactive effects on blood glucose in ob/ob mice; conditions: GBR 12909 about 20 mg/kg, clonidine about 0.1 mg/kg, alone or together, once daily 14 days, controls 202±41
Experimental: GBR 12909 is a specific dopamine reuptake inhibitor. Its use can increase the dopaminergic to noradrenergic neuronal activity in the central nervous system. However, by combining GBR 12909 with clonidine, a noradrenergic alpha 2 receptor agonist with preferential affinity for presynaptic alpha 2 sites, it is possible to further increase the dopamine to noradrenaline neuronal activity ratio in the central nervous system. A study was conducted to determine the interactive effects of GBR 12909 and clonidine on blood glucose level in ob/ob mice.
Obese, diabetic female ob/ob mice (body weight of approximately 28 g) with mild diabetes were maintained on 14 hour daily photoperiods, housed one per cage and allowed to feed ad libitum. Different groups of these animals were randomized to once daily treatment with either a specific dopamine reuptake inhibitor, GBR 12909 at an approximate dose of 20 mg/kg body weight (n=4), or clonidine at an approximate dose of 0.1 mg/kg (n=5), these same dosages of GBR 12909 plus clonidine (n=3), or vehicle (control group; n=5-7) for a 14 day period. On the fifteenth day of the study and approximately 24 hours after the final treatment animals were sacrificed and blood samples were obtained for the analyses of blood glucose levels.

[6] = tested on: obese, diabetic female (ob/ob) mice; assay: GBR 12909 once daily for 14 days in obese, diabetic ob/ob mice; conditions: 30 mg/kg once daily
Experimental: GBR 12909 (1-(2-[bis(4-Fluorophenyl)methoxy]ethyl)-4-(3-phenylpropyl)piperazine dihydrochloride) is a specific dopamine reuptake inhibitor. Systemic administration of GBR 12909 can increase the dopaminergic to noradrenergic neuronal activity in the central nervous system. A study was conducted to determine the effects of GBR 12909 upon blood glucose and plasma free fatty acid levels in obese, diabetic mice (ob/ob strain). The ob/ob mouse is hyperphagic, obese, insulin resistant, diabetic and dyslipidemic due to the absence of functional leptin as a result of a mutation in this gene. Starvation or calorie restriction of these mice leads to increases in plasma free fatty acid levels that can function over the long term to worsen diabetes.
Different groups of obese, diabetic female (ob/ob) mice (body weight of approximately 33 g) maintained on 12 hour daily photoperiods, housed one per cage and allowed to feed ad libitum were randomized to once daily treatment with either a specific dopamine reuptake inhibitor, GBR 12909 at a dose of 30 mg/kg body weight (n=5-7) or vehicle (control group; n=5-7) for a 14 day period. On the fifteenth day of the study and approximately 24 hours after the final treatment animals were sacrificed and blood samples were obtained for the analyses of blood glucose and plasma free fatty acid and triglyceride levels.

[7] = tested on: female C57 Black mice fed a high simple sugar/moderate fat diet (western diet); assay: Body fat in C57 Black mice fed a western diet (GBR, FA, clonidine and combinations); conditions: mice on western diet; GBR 25 mg/kg, FA 10 mg/kg, clonidine 0.075 mg/kg; 14 days; relative to vehicle and BC/SKF groups; FIG. 7
Experimental: Female C57 Black mice were maintained on a 12 hour daily photoperiod and fed a high simple sugar/moderate fat diet (western diet) for several weeks to induce obesity and then different groups of animals (n =5-8/group) were treated with either GBR 12909 (25 mg/kg), FA (10 mg/kg), clonidine (0.075 mg/kg), GBR (25 mg/kg) plus FA (10 mg/kg), GBR (25 mg/kg) plus clonidine (0.075 mg/kg), bromocriptine (10 mg/kg) plus SKF38393 (10 mg/kg), or vehicle and sacrificed after 14 days of treatment to analyze body fat store levels.

[8] = tested on: obese, diabetic female ob/ob mice; assay: Fusaric acid plus SKF 38393 in ob/ob mice; conditions: fusaric acid 15 mg/kg, SKF 38393 10 mg/kg; for retroperitoneal fat pad weight / plasma triglyceride level: 14 days; for retroperitoneal fat pad weight: control value 727±25; for plasma triglyceride level: controls 155±15; for blood glucose: alone or both, once daily 14 days, controls 380±30
Experimental: Fusaric acid is a dopamine beta hydroxylase inhibitor that reduces noradrenaline synthesis in noradrenergic neurons. It is not present in dopaminergic neurons and thus exerts no such effect there. SKF38393 is a post-synaptic dopamine D1 receptor agonist with no marked influence on noradrenergic neurons. A study was conducted to determine the interactive effects of fusaric acid plus SKF 38393 on body fat store levels, and blood glucose and plasma triglyceride levels in ob/ob mice. The ob/ob mouse is hyperphagic, obese, insulin resistant, diabeteic and dyslipidemic due to the absence of functional leptin as a result of a mutation in this gene.
Obese, diabetic female ob/ob mice (body weight of approximately 33 g) maintained on 14 hour daily photoperiods, housed one per cage and allowed to feed ad libitum were randomized to once daily treatment with either fusaric acid (15 mg/kg; n=6-8), SKF 38393 (10 mg/kg; n=6-8), both fusaric acid (15 mg/kg) and SKF 38393 (10 mg/kg) (n=6-8), or vehicle (control group; n=6-8) for a 14 day period. On the fifteenth day of the study and approximately 24 hours after the final treatment animals were sacrificed and blood samples were obtained for the analyses of blood glucose, plasma free fatty acid and triglyceride levels. Relative to controls, fusaric acid raised blood glucose from 380±30 mg/dl to 430±30 mg/dl and SKF 38393 reduced blood glucose to 290±55 mg/dl. However, fusaric acid plus SKF 38393 reduced blood glucose to 180±20 mg/dl. […] Neither fusaric acid nor SKF 38393 had any effect on retroperitoneal fat pad weight (735±43 mg and 735±50 mg, respectively versus control value of 727±25 mg) however, the combination of fusaric acid plus SKF 38393 reduced retroperitoneal fat pad weight to 680±25 mg.

[9] = tested on: female obese diabetic mice (ob/ob strain); assay: Bupropion plus fusaric acid in ob/ob mice; conditions: bupropion 40 mg/kg, FA 10 mg/kg, 14 days, relative to control, FIG. 9
Experimental: Female obese diabetic mice (ob/ob strain) at 6 weeks of age were fed standard rodent chow and different groups of animals (n=5-7/group) were treated with bupropion (40 mg/kg), FA (10 mg/kg), bupropion (40 mg/kg) plus FA (10 mg/kg), or vehicle for 14 days and then sacrificed for the analyses of blood glucose and body fat store level.

[10] = relative to vehicle, 18 days of treatment
[11] = GBR 12909 10 mg/kg, FA 15 mg/kg, 14 days

`CCCN1CCC[C@@H]2Cc3nc(N)ncc3C[C@H]21` [Q] was tested, and the “change from baseline body weight (weight loss)” value ([1]; Q 0.075 mg/kg) was “modest if any effects”, the “desensitization to the effects on weight loss” value ([1]; Q 0.075 mg/kg, weight regained to baseline values by treatment end) was “exhibited desensitization” and the “plasma endothelin-1 (endothelin 1-21 fragment) level” value [1, 10] was “no significant effect”. For the same compound, the “plasma nitric oxide level” value [1, 10] was “no significant effect” and the blood glucose level ([1]; relative to vehicle) was “reduced”.

With `CC(N)Cc1ccccc1` (centres unmarked) [amphetamine] the “effect on final body weight” value ([2]; 14 days) was “no effect”, the “plasma free fatty acid levels” value ([2]; 14 days, controls 900±100) was 510 ± 30 µM and the plasma triglyceride levels ([2]; bromocriptine 5-<10 mg/kg, 14 days, controls 175±21) was 70 ± 7 mg/dL. The blood glucose ([2]; bromocriptine 5-<10 mg/kg, once daily 14 days, controls 422±46) was 348 ± 22 mg/dL.

In the case of `Cl.Cl.Fc1ccc(C(OCCN2CCN(CCCc3ccccc3)CC2)c2ccc(F)cc2)cc1` [GBR 12909, 1-(2-[bis(4-Fluorophenyl)methoxy]ethyl)-4-(3-phenylpropyl)piperazine dihydrochloride], the “reducing plasma insulin, compared with bupropion at equal dose” value ([3]; 20 mg/kg each) is reported as “much more effective”, the HOMA-IR values ([3]; GBR 20 mg/kg, compared to vehicle and Bupropion (20 mg/kg) groups, FIG. 19) is reported as “significantly reduced” and the “body fat (intraabdominal fat pad)” value ([3]; GBR 20 mg/kg, compared to vehicle and Bupropion (20 mg/kg) treatment, FIG. 17) is reported as “significantly reduced”. For the same compound, the blood glucose ([3]; GBR 20 mg/kg, relative to vehicle and Bupropion (20 mg/kg) groups, FIG. 18) was “significantly reduced”, the “body weight (normalization)” value [4] was “not observed” and the blood glucose level ([4]; GBR 12909 10 mg/kg, FA 15 mg/kg, 14 days, FIG. 11) was “no significant effect”. The “plasma insulin levels compared to lean, insulin sensitive, non-diabetic mice” value [4, 11] was “significantly higher”, the blood glucose [5] was 221 ± 31 mg/dL and the “reduction of plasma triglyceride level relative to controls” value [6] was “approximately 32%”. For the same compound, the blood glucose ([6]; about 24 hours after final treatment, controls 455±50) was 145 ± 25 mg/dL, the final body weight ([6]; controls 42±2) was 28 ± 0.5 g and the “plasma free fatty acid levels” value ([6]; controls 780±40) was 450 ± 20 µM.

For `Clc1cccc(Cl)c1NC1=NCCN1` [clonidine, 2-(2,6-dichloroanilino)-2-imidazoline], the “body fat store level (intraabdominal fat pad)” value [7] was “no effect” and the blood glucose [5] was 250 ± 35 mg/dL.

With `CCCCc1ccc(C(=O)O)nc1` [fusaric acid, 5-butyl-2-pyridinecarboxylic acid] the “retroperitoneal fat pad weight” value [8] was 735 ± 43 mg, the plasma triglyceride level [8] was 170 ± 27 mg/dL and the blood glucose [8] was 430 ± 30 mg/dL. For the same compound, the blood glucose [9] was “no significant effect”, the “change from baseline body weight (weight loss)” value ([1]; Q 0.075 mg/kg) was “modest if any effects” and the “plasma C-reactive protein (CRP) level” value [1, 10] was “no significant effect”. For the same compound, the blood glucose level ([1]; relative to vehicle) was “reduced”, the “body weight (normalization)” value [4] was “not observed” and the “plasma insulin levels compared to lean, insulin sensitive, non-diabetic mice” value [4, 11] was “significantly higher”.

`Cl.Oc1cc2c(cc1O)C(c1ccccc1)CNCC2` (centres unmarked) [SKF 38393, 1-phenyl-7,8-dihydroxy-2,3,4,5-tetrahydro-1H-3-benzazepine hydrochloride] was tested, and the “retroperitoneal fat pad weight” value [8] was 735 ± 50 mg, the plasma triglyceride level [8] was 130 ± 7 mg/dL and the blood glucose [8] was 290 ± 55 mg/dL.
